Where two headings read alike, the source gives them in different places.
Assays:
[1] = tested on: myelin basic protein (MBP); assay: Myelin basic protein (MBP) Western blot in hippocampal slice cultures; assay type: cell-based, rat; details: after SD; anti-CD4 for 24 hours at 7 days in vitro; GW 4869
Protocol: FIGS. 14A-14C. Reduced myelin basic protein (MBP) from SD depends on IFN-γ/T-cell activation and sphingomylinase. […] Thus, confirming involvement of T cells.
FIGS. 15A-15C. Physiological and transient elevation [i.e., phasic (see FIG. 1)] of IFN-γ triggers completely opposite effects. Transient (i.e., 500 U/mL×12 hours; all groups n≥5) exposure of hippocampal slice cultures was nutritive when assessed seven days later.

[2] = tested on: CA3 area evoked excitability; assay type: cell-based, rat; details: H2O2 exposure
Protocol: (§1) FIGS. 11a-11g IGF-1 decreased CA3 oxidative stress (OS) and its related hyperexcitability. […] Relative evoked excitability was determined as a sum of responses seen (e.g., responses of “2” and a “3” yielded an overall excitability score of five). […] (FIGS. 11d-e) Exemplary images of control (FIG. 11d) slice culture OS compared to increased slice OS induced by exposure to menadione (FIG. 11e). Calibration bar, 200 Dotted boxes indicate CA3 areas of interest used for relative OS quantifications (f and g).

[3] = tested on: oxidative stress (OS) in hippocampal slice cultures; assay: Oxidative stress (OS) by CellROX fluorescence in hippocampal slice cultures (CA3); assay type: cell-based, rat; details: menadione exposure, without or with acute IGF-1
Protocol: FIGS. 4A-4F Oxidative stress (OS) from SD and its reduction by IGF-1. (FIG. 4A) Normal cytoarchitecture of a hippocampal slice culture showing pyramidal neuron areas of CA1, dentate gyrus (DG), and the imaging zone for the inventors' work here (dotted line), CA3. (FIG. 4B) OS was measured using CellROX, a fixable fluorescent marker from Invitrogen. […] (FIG. 4D) This reduction versus control SD was significant (p<0.02; n=4 & 5). (FIG. 4E) CellROX can be used to measure relative OS in specific brain cell types.
FIGS. 9a-9f IGF-1 decreased oxidative stress from spreading depression. (FIG. 9a) NeuN immunohistochemical labeling of a hippocampal slice culture, for cytoarchitectural reference and to show the CA3 area of interest (dotted line box) used for quantification of oxidative stress (OS) via CellROX™ fluorescence intensity. (FIGS. 9b-c) Representative CellROX™-labeled hippocampal slices exposed to SD (FIG. 9b) and to 3-day IGF-1 incubation followed by spreading depression (SD) (FIG. 9c). Dotted line boxes illustrate CA3 areas of interest used for relative OS quantifications. […] Again, seven day treatments consisted of exposing cultures to IGF-1 for 12 hours a day for seven days. Note: IGF-1 exposure was continued for the additional 24 hour CellROX™ incubation. Scale bars=400 μm (a) and 200 μm (b and c). Comparisons between groups were made via ANOVA plus Holm-Sidak post hoc testing.
as §1
Oxidative stress from SD preferentially rises in astrocytes and microglia, with the latter effect mitigated by IGF-1 (FIG. 13). The inventors have recently shown that spreading depression (SD), the most likely cause of migraine aura and perhaps migraine (Lauritzen and Kraig, 2005), occurs with increased oxidative stress (OS) and that OS, in turn, increases SD susceptibility (Grinberg et al., 2012). Reactive oxygen and nitrogen species that cause OS have both autocrine and paracrine signaling capacities that can affect SD susceptibility by altering excitability (Kishida and Klann, 2007). Accordingly, the inventors looked for the cellular origin of OS from SD. Here the inventors used hippocampal slice cultures (HSC) to probe for cell-specific changes in OS from SD. SD was induced trans-synaptically in rat HSCs using bipolar electrical stimuli at the dentate gyrus (Pusic et al., 2011). Six SDs were induced every 7-9 min over an hr, followed by 24 hr incubation in CellROX™, a fixable fluorogenic probe for measuring OS (Grinberg et al., 2012). HSCs were then fixed in 10% buffered formalin phosphate. Other fixatives (PLP, 4% paraformaldehyde) prevented detection of OS change. Tissue was then labeled for neurons (anti-NeuN), oligodendrocytes (anti-RIP), astrocytes (anti-GFAP), or for microglia (isolectin GS-IB4).

[4] = tested on: spreading depression (SD) in hippocampal slice cultures; assay: Spreading depression (SD) threshold / susceptibility in hippocampal slice cultures; assay type: cell-based, rat
Description: FIGS. 2A-2E. […] (FIG. 2A) Experiments begin with determination of the current needed to maximize standard CA3 area field potential responses. Half-maximal intensity is then used to elicit CA3 area evoked field potentials from dentate gyrus bipolar electrical stimulation. This documents the normalcy of evoked synaptic responses between preparations. If a slice's field excitatory post synaptic potentials are not at least 3 mV, slices are discarded. Next, field potential trains (i) are noted to verify that preparations are healthy enough to follow 10 Hz stimulation (e.g., amplitudes of vertical deviations in fast potential records are similar) and the current needed to trigger SD (ii) is registered (Pusic and Kraig, 2010).
(FIG. 8a) Exemplary CA3 area evoked field potential. Experiments begin with establishment of the current intensity needed to evoke maximal field potential responses; stimuli of half-maximal intensity were then used to elicit subsequent field potentials. Only those cultures with CA3 pyramidal neuron post-synaptic responses of at least 3 mV were used for experiments. (FIG. 8b) CA3 response to dentate gyrus bipolar stimulation (10 pulses at 10 Hz, 500 μA) was used to elicit a spreading depression (SD), as shown in (FIG. 8c). (FIG. 8c) The spreading depression (SD) shown here was induced by the stimulation/response (arrow) shown in (FIG. 8b). […] Comparisons between groups made via Student's t-test.
The inventors induced SD trans-synaptically in rat HSC using electrical stimuli (100 μs pulses @ 10 Hz for 1 s) ranging from 1 to 10,000 nC in order to determine SD threshold in sham and experimental groups (Pusic et al., 2011). Results were based on n≥3-6/group. […] This insulin dose approximates the pharmacological levels seen in humans treated with nasal insulin.
Slice cultures were prepared and maintained as previously described (Mitchell et al., 2010a,). After 18 days in vitro (DIV), slice cultures were transferred to serum-free media that included additional calcium and magnesium. Cultures were screened at 21 DIV to ensure no pyramidal neuron death was present. Standard electrophysiological recordings were performed by placing a slice culture insert in a PDMI recording chamber with controlled temperature and pH (FIG. 1). The recording chamber was aerated with 5% CO2-balance air at 36° C. and media flowing at 1.2 mL/min or was held static around the slice culture insert. A recording electrode was placed at the CA3 pyramidal cell layer and a stimulating electrode was placed at the surface of the dentate gyrus. Recordings were initiated prior to placing the stimulating electrode on the culture to ensure no spreading depression was triggered as a result.
Studies began with determination of the current needed to maximize standard CA3 area field potential responses. This documented the normalcy of evoked synaptic responses between preparations. If a slice's field EPSPs were not at least 3-4 mV, it was discarded.
Next, trans-synaptically evoked SD was determined. Here, the inventors stimulated slices via the dentate gyrus with 100 μs pulses delivered at 10 Hz for 1 sec every 1-2 minutes at increasing μA current intensities until SD occurred.
Slice cultures are prepared, maintained, and induced to fire SD as previously described using trans-synaptic excitation of CA3, where SD is initiated (FIG. 4) (Kunkler et al., 2005; Pusic et al., 2011).

[5] = tested on: SD in neocortex and hippocampus of anesthetized rat; assay: SD threshold in vivo (0.5 M KCl injection) after nasal administration; details: acutely after nasal treatment (IGF-1 150 μg; insulin 20 μg); control 1-8 nL
Protocol: Images show experimental setups for nasal administration and testing. (FIG. 7A) Nasal injection setup showing heat lamp and thermo-regulator that maintains temperature at 37° C. plus nose cone used to deliver isoflurane anesthesia. (FIG. 7B) Operator is shown administering nasal IGF-1 solution, which is performed in a fume hood to adequately vent isoflurane from nose cone. (FIG. 7C) Image illustrates standard electrophysiology setup. Anesthetized animal is placed into a standard electrophysiology holder and anesthesia maintained by a nose cone delivering 3% isoflurane in oxygen. Arterial oxygen saturation is monitored with a pulse-oximeter. Animals are warmed to 37.5° C. with a heating plate. SD is induced by progressively injecting larger volumes of 0.5 M KCl from an 8 μm diameter microelectrode. SD is registered with a second microelectrode used for DC recordings placed more caudally. After SD is evoked by a given injection pulse, the stimulating electrode is withdrawn and a volume re-injected under mineral oil. The diameter of the resultant KCl injection sphere is then measured off line using a compound microscope and the injection volume calculated. For example, in the above whole animal experiments it took 1-8 nL of 0.5 M KCl to evoke SD in control brain regions while after acute IGF-1 this amount rose to 67-109 nL. A day after IGF-1 treatment the volume needed to evoked SD was 34-48 nL. IFN-γ treatment required 338 nL of 0.5 M KCl a day after treatment and IL-11 required 67-200 nL.
Rats (FIGS. 6 and 7) are anesthetized with inhalational isoflurane and kept warm. While anesthetized, animals are placed in a supine position and 50 μL of sterile drug (i.e., IFN-γ, IGF-1, or IL-11) solution [or sterile saline vehicle (sham control)] is administered nasally by delivering 5 μL alternating between the left and right naris every 2 min over 20 minutes. Animals are given nasal drug treatments daily at the same time for 7 days before subsequent experiments. Doses for all 3 agents begin with the effective doses noted in our work using slice cultures (1×), then include others (0.1× and 10×). The inventors base this strategy on the fact that the effective culture dose for IGF-1 (40 ng/mL) closely approximates the dose used in vivo (143 μg/kg).
This approach was applied to measurement of SD threshold (FIG. 10) after treatment (FIG. 7) with nasally administered IGF-1 (150 μg), IL-11 (1 μg), IFN-γ (50,000 units), and insulin (20 μg). […] Resistance against SD was always greater in hippocampus compared to neocortex (n=4, controls; n=3, acutely after IGF-1; n=6, one day after IGF-1; n=6, one day after IL-11; n=6, one day after IFN-γ; and n=3, acutely after insulin).
Nasal administration followed by SD threshold evaluation in vivo. Vehicle or human recombinant IGF-1 (150 μg) is administered intranasally. SD threshold is established by injection of nanoliter volumes of 0.5 M KCl into neocortex or hippocampus (−2.0 mm from Bregma and 1.5 mm lateral from midline at either 750 μm or 2,800 μm into brain, respectively) using a thin-walled glass pipette and Picospritzer. Once a threshold is established, it is confirmed two more times, with an exemplary record from a vehicle-sham animal shown below. […] The diameter of the injected sphere is then measured using a compound microscope and used to calculate the injected volume, then moles of potassium. […]

## O=C(/C=C/c1ccc(/C=C/C(=O)Nc2ccc(C3=NCCN3)cc2)cc1)Nc1ccc(C2=NCCN2)cc1 [GW 4869, reference compound]
[1]
  decline in MBP / demyelination after SD: prevents the drop in MBP after SD

## OO [hydrogen peroxide, reference compound]
[2]; without or with IGF-1 pretreatment for 3 days
  evoked excitability versus control: increased slice excitability
[2]; without or with acute IGF-1, 30 minutes after H2O2
  evoked excitability versus control: significantly increased evoked slice hyperexcitability
[2]; without or with acute IGF-1, 30 minutes after H2O2, listed as H2O2
  evoked excitability versus control: increase in evoked excitability

## CC1=CC(=O)c2ccccc2C1=O [menadione, reference compound]
[3]
  OS induced by menadione versus control: significant increase in slice OS

## Insulin
[4]; 3-day exposure, insulin 400 μg/mL
  relative SD threshold versus control (control 1.00±0.20): 22.60±9.60
[4]; protection against SD in slice cultures
  insulin dose needed for protective effect relative to IGF-1: 15 500 fold
[4]; slice cultures
  dose needed for protective effect against SD: 70 µM
[5]
  volume of 0.5 M KCl needed to evoke SD: 8 to 34 nL

B1: sTNFR1: soluble TNFR1 used for removal of TNF-α signaling (protein, UniProt P19438 30-211, looked up)
extracellular domain: LVPHLGDREKRDSVCPQGKYIHPQNNSICCTKCHKGTYLYNDCPGPGQDTDCRECESGSFTASENHLRHCLSCSKCRKEMGQVEISSCTVDRDTVCGCRKNQYRHYWSENLFQCFNCSLCLNGTVHLSCQEKQNTVCTCHAGFFLRENECVSCSNCKKSLECTKLCLPQIENVKGTEDSGTT
modifications: extracellular domain
notes: soluble TNFR1 used for removal of TNF-α signaling
[4]; after previous SD, soluble TNFR1 200 ng/mL after first day of SD, anti-CD4 0.1 mg/mL at 7 days for 24 hours
  SD-induced increased susceptibility to SD: abrogated
